Key:
EWS-FLI1 = assay: Fluorescence polarization assay, FITC-E9R displacement; assay type: binding; settings: 30 μM YK-4-279; 3.2 μM FITC-E9R
Description: The assay was performed in 20 mM Tris, 500 mM NaCl, 0.67 M imidazole, pH 7.4. The fluorescence polarization was analyzed in a QuantaMaster fluorimeter (Photon Technology International, Ford, West Sussex, UK) equipped with polymer sheet polarizers at an excitation wavelength of 495 nm and emission wavelength of 517 nm. […] (3.2 μM, as determined from saturated binding curve) with the same buffer and instrumental settings as described above.

[1] = target: T1, EWS-FLI1 and RHA in TC32 cells (Homo sapiens, UniProt Q01543+Q01844); assay: Co-precipitation of RHA with EWS-FLI1 from treated TC32 cells; assay type: cell-based
T1 construct: endogenous in cells; host or cells: TC32 (ESFT cell line)
Description: FIG. 32 provides data showing YK-4-279 reduces EWS-FLI1 functional activity. FIG. 32A concerns TC32 cells that were treated with YK-4-279 and resolved protein lysates and that were immunoblotted for co-precipitated RHA (top), EWS-FLI1 (middle), or total RHA (bottom).
Protein lysates and immunoprecipitations were performed as previously published (Uren et al (2005)). Recombinant GST-RHA (647-1075) was prepared from crude bacterial extracts without further purification.

NFκB responsive promoter = assay: NFκB responsive reporter in COS7 cells activated with PMA; assay type: cell-based; settings: after PMA
Description: FIG. 38A provides data showing COST cells transfected with an NFκB reporter construct followed by stimulation with PMA. Cells were treated with YK-4-279 following PMA treatment. Cell lysates were analyzed for NFκB induced luciferase activity as standardized to LTR activated renilla luciferase.

[2] = test system: cyclin D levels in TC32 cells; assay: Cyclin D immunoblot, TC32 cells; assay type: cell-based; settings: TC32 cells treated for 14 hours
[3] = test system: cyclin D levels in four non-EWS-FLI1 containing cell lines; assay: Cyclin D immunoblot, non-EWS-FLI1 containing cell lines; assay type: cell-based; settings: 10 μM overnight
[4] = test system: non-transformed HEK293 cells; assay: Cell growth, HEK293; assay type: cell-based; settings: TC32 vs HEK293
Description: (§1) FIG. 33 provides data showing YK-4-279 is potent and specific inhibitor of ESFT. […] Cell number was measured by MTT or WST reduction after seven days in culture. […] FIG. 33D cell lines expressing EWS-FLI1 compared to non-EWS-FLI1 malignant cell lines following 3 days in culture to establish the IC50 using WST assay. […] Graph plots level of fluorescence in treated divided by untreated lysate. […] Scale bar equals 200 μm.

ES925 = assay: Cell growth, primary ESFT line ES925; assay type: cell-based; settings: Homo sapiens, 72 h; 3 days; read-out: anti-proliferative IC50
Description: as §1

GUES1 = assay: Cell growth, primary ESFT line GUES1; assay type: cell-based; settings: Homo sapiens, 72 h; 3 days; read-out: anti-proliferative IC50
Description: as §1

panel of ESFT cell lines = assay: Cell growth (WST), panel of ESFT cell lines; assay type: cell-based; settings: 72 h, 3 days
Description: as §1

[5] = test system: cell lines that lack EWSFLI1; assay: Cell growth (WST), cell lines that lack EWS-FLI1; assay type: cell-based; settings: 72 h, 3 days
Description: as §1

[6] = test system: non-transformed keratinocytes (HFK) and ectocervical cells (HEC); assay: Viability (WST), non-transformed HFK and HEC; assay type: cell-based; settings: Keratinocyte, 72 h; treated for 3 days
Description: (§2) FIG. 39A provides data showing HEC and HFK, non-transformed endocervical cells and keritinocytes, treated with YK-4-279 for 72 hours and assayed for viability using WST reduction. FIG. 39B provides data showing TC71 cells treated for 16 hours with YK-4-279 or doxorubicin. Lysates were assayed for cleavage of AMC-DEVD by induced caspase-3 and fluorescence was measured. FIG. 39C provides data showing that RHA reduced TC71 cells were more resistant to YK-4-279 treatment than wild-type cells. FIG. 39D provides data showing an shRNA tet-inducible expression vector stably transfected into A673 (ESFT) cells to reduce EWS-FLI1 levels. FIG. 39E provides data showing that EWS-FLI1 reduced A673 cells were more resistant to YK-4-279 treatment than wild-type cells.

A673 cells = assay: YK-4-279 toxicity in shRNA-modified ESFT cells; assay type: cell-based; settings: for IC50: Homo sapiens
Description: as §2
shRNA (short hairpin RNA) against RHA was purchased from Open Biosystems (Huntsville, Ala.) Both virus production and purification were done according to Open Biosystems protocols. (For designing shRNA see McIntyre G. J. et al. “Design and cloning strategies for constructing shRNA expression vectors.” BMC Biotechnol. (2006) 6:1)
In order to further support for the target specificity of YK-4-279 toxicity upon ESFT cells, the levels of each of the critical proteins were reduced by using shRNA in A673 cells42. […] When EWS-FLI1 was reduced using shRNA, the IC50 increased 10-fold from 0.5 μM to approximately 5 μM (FIG. 39D, FIG. 39E).

[7] = test system: non-EWS-FLI1 cancer cell lines and non-transformed cell lines (HFK, HEC, HEK293); assay: Caspase-3 activity, non-EWS-FLI1 cancer and non-transformed cell lines; assay type: cell-based; settings: 10 μM, 24 hours
Description: as §1
(§3) Cells were treated for 24 hours with 10 μM YK-4-279. The Caspase-3 substrate DEVD-AMC was incubated with equal amounts of protein lysate and fluorescence from cleaved substrate measured in a fluorimeter. TC32 and non-transformed cells HEK-293, HFK, and HEC were treated for 6 hours with high dose (50 μM) YK-4-279. DAPI stained cells were photographed at 600× using inverted fluorescence microscope.

HEK293, HFK, and HEC = assay: Nuclear fragmentation (DAPI), non-transformed cells; assay type: cell-based; settings: 50 μM, 6 hours
Description: as §3

T1 sequence (Q01844+Q01543 fused): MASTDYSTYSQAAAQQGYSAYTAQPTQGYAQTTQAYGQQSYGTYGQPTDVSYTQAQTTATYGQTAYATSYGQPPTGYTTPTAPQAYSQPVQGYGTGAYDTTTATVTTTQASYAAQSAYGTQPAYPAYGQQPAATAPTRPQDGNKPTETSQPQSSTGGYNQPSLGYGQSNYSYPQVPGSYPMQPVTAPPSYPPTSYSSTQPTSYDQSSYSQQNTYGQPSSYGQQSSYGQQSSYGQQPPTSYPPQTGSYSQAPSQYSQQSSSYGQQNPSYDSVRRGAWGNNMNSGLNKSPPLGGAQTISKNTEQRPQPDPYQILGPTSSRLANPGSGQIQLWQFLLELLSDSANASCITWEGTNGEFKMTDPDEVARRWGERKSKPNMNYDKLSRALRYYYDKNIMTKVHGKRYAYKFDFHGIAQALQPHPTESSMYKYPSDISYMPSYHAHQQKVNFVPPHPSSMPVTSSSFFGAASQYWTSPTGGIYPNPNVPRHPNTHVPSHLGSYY

COc1ccc(C(=O)CC2(O)C(=O)Nc3c(Cl)ccc(Cl)c32)cc1 (stereo not shown) [YK-4-279, 4,7-Dichloro-3-hydroxy-3-[2-(4-methoxyphenyl)-2-oxoethyl]-1,3-dihydro-2H-indol-2-one]
displacement of FITC-E9R from EWS-FLI1 (EWS-FLI1): complete displacement | EWS-FLI1 and RHA protein levels [1]: did not directly affect EWSFLI1 nor RHA levels | EWS-FLI1/RHA association in treated ESFT cells ([1]; by 10 μM): dissociation of EWS-FLI1 from RHA | NFκB responsive promoter activity (NFκB responsive promoter): did not affect the NFκB responsive promoter | cyclin D levels [2]: nearly eliminated cyclin D levels | cyclin D levels [3]: did not affect cyclin D levels | difference in IC50, ESFT cells compared to HEK293 [4]: 10 fold | IC50 (ES925): 1 µM | IC50 (GUES1): 8 µM | IC50 (panel of ESFT cell lines): 0.5 to 2 µM | IC50 [5]: > 25 µM | IC50 [6]: > 30 µM | increase of IC50 when EWS-FLI1 was reduced (A673 cells): 10 fold | IC50 (A673 cells; A673, EWS-FLI1 reduced using shRNA): ~5 µM | IC50 (A673 cells; A673, RHA reduced cells (shRNA)): > 10 µM | IC50 (A673 cells; A673, before EWS-FLI1 reduction): 0.5 µM | IC50 (A673 cells; A673, control shRNA (targeting luciferase)): < 1 µM | apoptosis (caspase-3 activation) [7]: none | cell death (nuclear fragmentation) (HEK293, HFK, and HEC): no cell death
